Like-named read-outs stand apart in the source and are kept apart here.
How the values were obtained:
[1] = tested on: keratinocyte cells; format: cell-based, human; settings: below 5×10^-4 M, 24 hours treatment
From the text: (§1) Adult human keratinocytes from pooled donor skin were obtained from commercial sources (Cascade Biologics, Portland, Oreg., U.S.A.) and placed in 150 cm^2 bottom area culture flasks using culture medium 154 supplemented with HKGS (about 1%). At 80% confluency, cells were harvested with trypsin and cryopreserved until required.
The induction of apoptosis is a critical feature in the programmed cell death as it relates to disease conditions such as cancer, psoriasis, etc. where the uncontrolled proliferation of "immortal" cells such as keratinocytes is a causative feature of the disease. This example compares the ability of gallium maltol to induce apoptosis as compared to negative control (no gallium maltol), and positive control (CAM--an agent known to strongly induce apoptosis). The ability for gallium maltol to effect apoptosis was also measured by the inhibitory effect of ATA.
Specifically, keratinocyte cells were grown using medium 154 in 24 well plates seed with 2,500 cells/cm^2 as described above. Cultures were continued for 3 or 6 days when the cells had achieved about 20 or 60% confluence respectively. On these 2 occasions, media were aspirated from groups of 3 or 4 wells and replaced with high Ca^+2 medium either without supplement or with one of the following supplements:
1. Gallium maltol at a final concentration of one of the following: (a) 5×10^-4 M, (b) 1×10^-4 M, (c) 5×10^-5 M, (d) 1×10^-5 M, and (e) 1×10^-6 M;
4. As in (3) plus CAM at 1×10^-5 or 1×10^-6 M; and
5. As in (3) plus gallium maltol at 1×10^-4 or 2.5×10^-4 M;
(§2) Culture was renewed for a further 24 hours. At this time, media were removed and discarded, and the cells lysed with 200 μL/well of the solution provided in the Cell Death Detection Kit ELISA Plus (Boehringer Mannheim Biochemicals, Indianapolis, Ind., U.S.A., catalogue number 1774425). Aliquots of the lysate (20 μL) from each of 2 or 3 wells were assayed for nucleosomal enrichment following the kit instructions.

[2] = tested on: keratinocyte cells; format: cell-based, human; settings: keratinocytes, 48 h, 500 µM
Protocol: as §1, §2
The evaluation of apoptosis of keratinocytes was conducted to determine the relative affect on apoptosis achieved by gallium maltol, gallium nitrate and maltol. Specifically, keratinocyte cells were seeded in 12 well plates seed using culture medium 154. Cultures were continued for 4 days and the medium was changed to medium 154 with 1.2 mM Ca^+2 either without supplement or with one of the following supplements:
1. gallium maltol at a final concentration of 5×10^-4 M;
2. gallium nitrate at a final concentration of 5×10^-4 M;
3. maltol at a concentration of 15×10^-4 M; and
4. CAM at a concentration of 1×10^-5 M.
Three (3) wells were used in each group. The final amount of medium was 300 μL in each well. Culture was continued for 2 days. Bars represent absorbance at 405 nm minus the absorbance at 492 nm.

In the case of `Cc1occc(=O)c1[O-].Cc1occc(=O)c1[O-].Cc1occc(=O)c1[O-].[Ga+3]` [gallium maltol, neutral 3:1 gallium complex of maltol], the “increase in apoptosis at lower concentrations” value ([1]; cultured 3 days prior, FIG. 5) is reported as “failed to provide such a significant increase in apoptosis”, the “increase in apoptosis at lower concentrations” value ([1]; cultured 6 days prior, FIG. 6) is reported as “smaller increases in apoptosis at lower concentrations” and the “increase in apoptosis compared to control” value [2] is reported as roughly 19 fold.

Source: patent publication US5747482A, “Methods and compositions to inhibit keratinocyte proliferation” (priority 1996, dated 1998)
